Measurements reported in PubChem BioAssay AID248 (DTP/NCI, 2004).
Values joined by “and” are separate entries in the source; they are usually repeats but may differ in a detail not shown here. Equal values may be shown once. Toxic doses and inconclusive results are not listed. Cut-off read from the data, not from the text of the source: active = T/C of 150% or more; inactive = T/C below 125%.

Tested on: L1210 leukemia ip in BDF1 mice, survival T/C
Experiment: NCI In Vivo Anticancer Drug Screen. Data for tumor model L1210 Leukemia (intraperitoneal) in B6D2F1 (BDF1) mice
Conditions: endpoint: mean survival time, higher = longer survival
How it was run: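 Tumor was transplanted into mice, which were then dosed with test compound or vehicle alone. Survival was recorded for each group, and the treated figure was expressed relative to the control figure.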

[1] = dose: 100.0 mg/kg/injection, schedule: Q04DX003 (ip), vehicle: saline with Tween-80
[2] = dose: 200.0 mg/kg/injection, schedule: Q04DX003 (ip), vehicle: saline with Tween-80
[3] = dose: 100.0 mg/kg/injection, schedule: Q04DX002 (ip), vehicle: Klucel (hydroxypropylcellulose) (HPC)
[4] = dose: 200.0 mg/kg/injection, schedule: Q04DX002 (ip), vehicle: Klucel (hydroxypropylcellulose) (HPC)
[5] = dose: 400.0 mg/kg/injection, schedule: Q04DX002 (ip), vehicle: Klucel (hydroxypropylcellulose) (HPC)
[6] = dose: 100.0 mg/kg/injection, schedule: Q01DX009 (ip), vehicle: Klucel (hydroxypropylcellulose) (HPC)
[7] = dose: 200.0 mg/kg/injection, schedule: Q01DX009 (ip), vehicle: Klucel (hydroxypropylcellulose) (HPC)
[8] = dose: 100.0 mg/kg/injection, schedule: Q01DX009 (ip), vehicle: saline with Tween-80
[9] = dose: 400.0 mg/kg/injection, schedule: Q01DX009 (ip), vehicle: saline with Tween-80
[10] = dose: 100.0 mg/kg/injection, schedule: Q01DX001 (ip), vehicle: carboxymethylcellulose (CMC)
[11] = dose: 200.0 mg/kg/injection, schedule: Q01DX001 (ip), vehicle: carboxymethylcellulose (CMC)
[12] = dose: 400.0 mg/kg/injection, schedule: Q01DX001 (ip), vehicle: carboxymethylcellulose (CMC)
[13] = dose: 100.0 mg/kg/injection, schedule: Q01DX001 (ip), vehicle: saline
[14] = dose: 200.0 mg/kg/injection, schedule: Q01DX001 (ip), vehicle: saline
[15] = dose: 400.0 mg/kg/injection, schedule: Q01DX001 (ip), vehicle: saline
[16] = dose: 100.0 mg/kg/injection, schedule: Q04DX002 (ip), vehicle: saline with Tween-80
[17] = dose: 200.0 mg/kg/injection, schedule: Q04DX002 (ip), vehicle: saline with Tween-80
[18] = dose: 400.0 mg/kg/injection, schedule: Q04DX002 (ip), vehicle: saline with Tween-80
[19] = dose: 100.0 mg/kg/injection, schedule: Q04DX003 (ip), vehicle: Klucel (hydroxypropylcellulose) (HPC)
[20] = dose: 200.0 mg/kg/injection, schedule: Q04DX003 (ip), vehicle: Klucel (hydroxypropylcellulose) (HPC)
[21] = dose: 400.0 mg/kg/injection, schedule: Q01DX009 (ip), vehicle: Klucel (hydroxypropylcellulose) (HPC)
[22] = dose: 400.0 mg/kg/injection, schedule: Q04DX003 (ip), vehicle: Klucel (hydroxypropylcellulose) (HPC)
[23] = dose: 100.0 mg/kg/injection, schedule: Q04DX003 (ip), vehicle: saline
[24] = dose: 200.0 mg/kg/injection, schedule: Q04DX003 (ip), vehicle: saline
[25] = dose: 50.0 mg/kg/injection, schedule: Q01DX001 (ip), vehicle: carboxymethylcellulose (CMC)
[26] = dose: 200.0 mg/kg/injection, schedule: Q01DX009 (ip), vehicle: saline with Tween-80

Measured: T/C

CCCCCCCCC(=O)N(C)OC
inactive: [1] 93 % of control | [2] 93 % of control

CNc1ccccc1C(=O)N/N=C/c1cccc([N+](=O)[O-])c1
inactive: [3] 93 % of control | [4] 96 % of control | [5] 86 % of control

CCN(CC)c1ccc(NC(=S)Nc2cccc(C(F)(F)F)c2)c(C)c1
inactive: [6] 93 % of control | [7] 90 % of control

C[N+](C)(C)c1ccc(N=Nc2ccccn2)cc1
inactive: dose: 50.0 mg/kg/injection, schedule: Q01DX001 (ip), vehicle: saline 113 % of control

CS(=O)(=O)N(CC(=O)O)Cc1ccc(F)cc1
inactive: dose: 100.0 mg/kg/injection, schedule: Q01DX009 (ip), vehicle: other 103 % of control | dose: 100.0 mg/kg/injection, schedule: Q04DX003 (ip), vehicle: other 98 % of control | dose: 200.0 mg/kg/injection, schedule: Q01DX009 (ip), vehicle: other 102 % of control | dose: 200.0 mg/kg/injection, schedule: Q04DX003 (ip), vehicle: other 104 % of control | dose: 400.0 mg/kg/injection, schedule: Q01DX009 (ip), vehicle: other 97 % of control | dose: 400.0 mg/kg/injection, schedule: Q04DX003 (ip), vehicle: other 94 % of control

Cc1c2ccccc2c(CSCC(N)C(=O)O)c2ccc3ccccc3c12 (stereo not given)
inactive: [8] 87 % of control | [9] 87 % of control

Cc1ccc(S(=O)(=O)Nc2ccccc2N=Cc2ccc(N(CCCl)CCCl)cc2C)cc1
inactive: [10] 101 % of control | [11] 103 % of control | [12] 86 % of control

Nc1ccc2c(c1[N+](=O)[O-])C(=O)c1ccccc1C2=O
inactive: [13] 92 % of control | [14] 95 % of control | [15] 97 % of control

CCC(=O)Nc1cccc(OC(=O)N(C(C)C)C(C)C)c1
inactive: [1] 93 % of control | [2] 93 % of control | dose: 400.0 mg/kg/injection, schedule: Q04DX003 (ip), vehicle: saline with Tween-80 104 % of control

Cc1ccc(S(=O)(=O)N/N=C/C=C/c2ccccc2)cc1
inactive: [16] 103 % of control | [17] 93 % of control | [18] 93 % of control

NC(=Nc1ccc(N=C(N)N[N+](=O)[O-])cc1)N[N+](=O)[O-]
inactive: dose: 25.0 mg/kg/injection, schedule: Q04DX002 (ip), vehicle: Klucel (hydroxypropylcellulose) (HPC) 107 % of control | dose: 50.0 mg/kg/injection, schedule: Q04DX002 (ip), vehicle: Klucel (hydroxypropylcellulose) (HPC) 96 % of control | [3] 96 % of control

CC(=O)n1cc(/C=C2\N=C(c3ccc([N+](=O)[O-])cc3)OC2=O)c2ccccc21
inactive: [16] 95 % of control | [17] 109 % of control | [18] 92 % of control

COc1ccccc1/C(=C/c1ccc([N+](=O)[O-])cc1)C(=O)O
inactive: dose: 100.0 mg/kg/injection, schedule: Q01DX001 (ip), vehicle: Klucel (hydroxypropylcellulose) (HPC) 100 % of control | [6] 97 % of control and 100 % of control | [3] 101 % of control and 107 % of control | [19] 97 % of control | dose: 200.0 mg/kg/injection, schedule: Q01DX001 (ip), vehicle: Klucel (hydroxypropylcellulose) (HPC) 94 % of control | [7] 95 % of control and 103 % of control | [4] 102 % of control and 103 % of control | [20] 100 % of control | dose: 400.0 mg/kg/injection, schedule: Q01DX001 (ip), vehicle: Klucel (hydroxypropylcellulose) (HPC) 94 % of control | [21] 100 % of control | [5] 97 % of control and 104 % of control | [22] 101 % of control

Cc1nc(Cl)c(C#N)c(C)c1[N+](=O)[O-]
inactive: [23] 95 % of control | [24] 90 % of control

O=C(O)CSc1n[nH]c(=O)[nH]c1=O
inactive: [13] 117 % of control | [14] 97 % of control | [15] 113 % of control

Cc1[nH]c2ccccc2c1/C=C/c1c[nH]c2ccccc12
inactive: [25] 93 % of control | [10] 91 % of control | [11] 98 % of control | [12] 91 % of control

O=C(Nc1ccc(S(=O)(=O)O)cc1)c1ccc(C(=O)Nc2ccc(S(=O)(=O)O)cc2)cc1
inactive: dose: 30.0 mg/kg/injection, schedule: Q01DX Z (ip), vehicle: saline 91 % of control | dose: 60.0 mg/kg/injection, schedule: Q01DX Z (ip), vehicle: saline 97 % of control | dose: 120.0 mg/kg/injection, schedule: Q01DX Z (ip), vehicle: saline 93 % of control

CCOC(=O)c1cnc(SC)nc1Nc1ccc(OC)cc1
inactive: [6] 96 % of control | [19] 95 % of control | [7] 91 % of control | [20] 98 % of control | [21] 94 % of control | [22] 90 % of control

Cc1ccc(S(=O)(=O)NCCN(C2CCCCC2)S(=O)(=O)c2ccc(C)cc2)cc1
inactive: dose: 15.0 mg/kg/injection, schedule: Q01DX001 (ip), vehicle: carboxymethylcellulose (CMC) 96 % of control | dose: 30.0 mg/kg/injection, schedule: Q01DX001 (ip), vehicle: carboxymethylcellulose (CMC) 96 % of control

O=C(O)/C=C(/Oc1ccc(Cl)cc1)C(=O)O
inactive: dose: 100.0 mg/kg/injection, schedule: Q04DX002 (ip), vehicle: other 93 % of control | dose: 200.0 mg/kg/injection, schedule: Q04DX002 (ip), vehicle: other 103 % of control | dose: 400.0 mg/kg/injection, schedule: Q04DX002 (ip), vehicle: other 100 % of control

O=C(/C=C/c1ccc(Cl)cc1)CCN1CCC2CCC(C2)C1 (stereo not given)
inactive: [25] 92 % of control | [10] 95 % of control

NCCP(=O)(O)c1ccccc1
inactive: [13] 94 % of control | [14] 93 % of control | [15] 93 % of control

CC(=O)N(C)c1ccc(N)cc1
inactive: dose: 100.0 mg/kg/injection, schedule: Q01DX009 (ip), vehicle: saline 104 % of control | [23] 100 % of control | dose: 200.0 mg/kg/injection, schedule: Q01DX009 (ip), vehicle: saline 98 % of control | [24] 105 % of control | dose: 400.0 mg/kg/injection, schedule: Q01DX009 (ip), vehicle: saline 93 % of control | dose: 400.0 mg/kg/injection, schedule: Q04DX003 (ip), vehicle: saline 102 % of control

COC1OCC(O)C(NC(C)=O)C1O (stereo not given)
inactive: [13] 105 % of control | [14] 107 % of control | [15] 100 % of control

Cc1nc(N(C)C)nc(C)c1C#[N+][O-]
inactive: [10] 94 % of control

O=C(CCC(C(=O)c1ccccc1)c1ccccc1)c1ccccc1 (stereo not given)
inactive: [8] 104 % of control | [26] 87 % of control | [9] 88 % of control

CCCCCCCCCCCCCCCCS(=O)(=O)CCO
inactive: [8] 98 % of control | [26] 93 % of control | [9] 92 % of control
